Laboratory results published in US20230295163A1, “TETRACYCLIC DERIVATIVE, METHOD FOR PREPARING SAME AND USE THEREOF IN MEDICINE” (ZHEJIANG HISUN PHARMACEUTICAL CO., LTD., priority 2020, published 2023).

How the values were obtained:
NCI-H358 cells = assay: Inhibition of NCI-H358 cell proliferation (CellTiter-Glo); type: cell-based, human; settings: Homo sapiens, NCI-H358, 120 h, 120 h of culture; read-out: IC50 inhibiting NCI-H358 cell proliferation
Experimental: The following method was used to determine the effect of the compounds of the present disclosure on the proliferation of NCI-H358 cells. NCI-H358 cells (containing KRAS G12C mutation) were purchased from the Cell Resource Center, Shanghai Institutes for Biology Sciences, Chinese Academy of Sciences, and cultured in RPMI 1640 medium containing 10% fetal bovine serum, 100 U penicillin, 100 μg/mL streptomycin and 1 mM sodium pyruvate. Cell viability was determined by CellTiter-Glo® Luminescent Cell Viability Assay Kit (Promega, Cat. No. G7573).
The experiment was conducted according to the steps in the kit instruction, which is briefly described as follows: The test compound was first prepared with DMSO into a 10 mM stock solution, which was then diluted with medium into a test sample with a final concentration of the compound ranging from 1000 nM to 0.015 nM Cells in the logarithmic growth phase were inoculated into a 96-well cell culture plate at a density of 800 cells per well, cultured overnight at 37° C. in a 5% CO2 incubator, and then added with the test compound for 120 h of culture. After the culture was completed, 50 μL of CellTiter-Glo detection solution was added to each well, shaken for 5 min and left to stand for 10 min. Subsequently, the luminescence value of the sample in each well was read by a microplate in a luminescence mode. The percentage of inhibition rate of the compounds at each concentration was calculated by comparing with the value of the control group (0.3% DMSO). Then a nonlinear regression analysis on the log concentration-inhibition rate of the compounds was performed by the software GraphPad Prism 5 to obtain the IC50 value of the compound inhibiting NCI-H358 cell proliferation. Table 2 IC50 data of compounds of the present disclosure inhibiting NCI-H358 cell proliferation Compound number IC50(nM)

[1] = test system: p-ERK1/2 in NCI-H358 cells; assay: Inhibition of p-ERK1/2 in NCI-H358 cells (HTRF kit); type: cell-based; settings: Homo sapiens, hEGF 5 nM stimulation, read-out: IC50 inhibiting p-ERK1/2 in NCI-H358 cells
Excerpt: The following method was used to determine the inhibitory activity of the compounds of the present disclosure on p-ERK1/2 in NCI-H358 cells. In this method, Advanced phospho-ERK1/2 (Thr202/tyr204) kit (Cat. No. 64AERPEH) from Cisbio company was used, and the detailed experimental operation can be referred to the kit instruction. NCI-H358 cells (containing KRAS G12C mutation) were purchased from the Cell Resource Center, Shanghai Institutes for Biology Sciences, Chinese Academy of Sciences.
The experimental procedure is briefly described as follows: NCI-H358 cells were cultured in RPMIH 1640 complete medium containing 10% fetal bovine serum, 100 U penicillin, 100 μg/mL streptomycin and 1 mM sodium pyruvate. […] The 96-well plate was placed on ice for half an hour of lysis, and then the lysate was detected according to the instruction of the Advanced phospho-ERK1/2 (Thr202/tyr204) kit. Finally, the fluorescence intensity of each well at emission wavelengths of 620 nm and 665 nM was measured on a microplate reader in TF-FRET mode at an excitation wavelength of 304 nm, and the ratio of the fluorescence intensity of each well at 665/620 was calculated. The percentage of inhibition rate of the test compounds at each concentration was calculated by comparing with the fluorescence intensity of the control group (0.1% DMSO). […]

[2] = test system: NCI-H358 cell xenograft tumor; assay: Pharmacodynamics in NCI-H358 cell BALB/c nude mouse subcutaneous xenograft model; type: in vivo, BALB/c nude mice; settings: 10 mg/kg po qd
Experimental: This test is used to evaluate the anti-tumor effect and safety of the compound 17 of the present disclosure in the animal model of BALB/c nude mouse subcutaneously transplanted with NCI-H358 (human non-small cell lung cancer) cell line after oral intragastric administration for 14 days, once a day.
An appropriate amount of compound 17 was weighed into a 10 mL centrifuge tube, added with an appropriate amount of DMA, shaken by vortex for complete dissolution of the solid matter, then added with an appropriate volume of 30% solutol HS 15, shaken by vortex, mixed well, and added with normal saline to make the ratio of DMA:30% solutol HS 15:saline 10:10:80 (v/v/v), for a preparation at a concentration of 1 mg/mL for administration.
About 3.7×10^6 NCI-H358 cells were subcutaneously inoculated on the right side of the back of female BALB/c nude mice. When the average volume of the tumor reached about 100-150 mm^3, the mice were randomly divided into 2 groups according to the size of the tumor, 6 mice in each group.
After tumor inoculation, a subcutaneous xenograft tumor model was established. Each treatment group and the vehicle control group were orally intragastrically administered for 14 days. The animals were weighed daily, and the tumor volume was measured twice a week.
Formulas for calculating the tumor volume (TV), relative tumor proliferation rate (T/C), relative tumor growth inhibition rate (TGI) and tumor inhibition rate (IR) are as follows: • (1) TV (tumor volume)=½×a×b^2, where a and b represent the length and width of the tumor, respectively; • (2) T/C (relative tumor proliferation rate, %)=TRTV/CRTV×100%, where TRTV is the RTV of the treatment group, and CRTV is the RTV of the control group; • (3) TGI % (tumor growth inhibition rate)=(1−T/C)×100%; where T and C are the relative tumor volumes at a specific time point in the treatment group and the control group, respectively. • (4) IR (%) (tumor weight inhibition rate)=(1−TWt/TWc)×100%, where TWt is the tumor weight in the treatment group, and TW is the tumor weight in the control group.

- IC50 (NCI-H358 cells): 21.1 nM
- IC50 [1]: 83.4 nM
Structure (SMILES): C=CC(=O)N1C[C@@H]2C(=O)N(C)c3c(c4cc(Cl)c(-c5c(O)cccc5F)nc4n(-c4c(SC)ccnc4C(C)C)c3=O)N2C[C@H]1C (single isomer, unassigned) [Compound 17]
- IR (tumor weight inhibition rate) ([2]; 14 days): 90.8%
- Tumor weight (x ± S) ([2]; 14 days): 0.0157 ± 0.0033 g
- T/C (%) ([2]; Day 15 after administration): 15.6%
- TGI (%) ([2]; Day 15 after administration): 84.4%
- Tumor volume (x ± S) ([2]; Day 15 after administration, mean ± standard error): 52 ± 15 mm^3
- Body weight change ([2]; within 14 days): without significant body weight change
- Growth inhibitory effect on the tumor model (in words) ([2]; within 14 days): obvious growth inhibitory effect
